Results on 8 compounds are retold here after US20240279176A1, “SUBSTITUTED TRICYCLIC HETEROCYCLIC COMPOUNDS AS METALLO-BETA-LACTAMASE INHIBITORS” (priority 2021, published 2024).

The subject of experiment [1] is Klebsiella pneumoniae ATCC BAA-2146. As to the kind of experiment: Checkerboard synergy assay in combination with Meropenem. To be noted: K. pneumoniae ATCC BAA-2146; for Fold reduction in meropenem MIC in the presence of compounds (μg/mL) 4: compound at 4 μg/mL; for Fold reduction in meropenem MIC in the presence of compounds (μg/mL) 8: compound at 8 μg/mL; for Fold reduction in meropenem MIC in the presence of compounds (μg/mL) 16: compound at 16 μg/mL; for Fold reduction in meropenem MIC in the presence of compounds (μg/mL) 32: compound at 32 μg/mL. The class given is cell-based.

The test system is the same in experiment [2]. As to the kind of experiment: Minimum inhibitory concentration (MIC), broth-microdilution (CLSI). The class given is cell-based. To be noted: ATCCBAA2146, compound alone, K. pneumoniae ATCC BAA-2146, read-out: Intrinsic MIC.
Experiment [3] addresses NDM-1 (Klebsiella pneumoniae, UniProt C7C422). The experiment is described as follows: Enzyme activity: IC50 in fluorescence assay with cephalosporin substrate FC5. Type of experiment: biochemical. The settings on record: 50 pM NDM-1, 1.5 μM FC5, 10 min pre-incubation.
In experiment [4] the target is IMP-1 (Serratia marcescens, UniProt P52699). The experiment is described as above. Type of experiment: biochemical. To be noted: 100 pM IMP-1, 10 μM FC5, 10 min pre-incubation.
IMP-1, sequence (P52699 19-246, looked up, species assumed): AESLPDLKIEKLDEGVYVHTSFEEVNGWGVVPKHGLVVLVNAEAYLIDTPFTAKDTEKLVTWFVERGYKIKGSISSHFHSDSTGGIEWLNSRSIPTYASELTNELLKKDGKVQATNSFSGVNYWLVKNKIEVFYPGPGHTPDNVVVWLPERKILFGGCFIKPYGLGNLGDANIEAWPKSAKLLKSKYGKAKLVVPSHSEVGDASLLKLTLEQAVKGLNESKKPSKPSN
The test system of experiment [5] is Klebsiella pneumoniae ATCC BAA-2146. As to the kind of experiment: Checkerboard synergy assay in combination with Imipenem. The class given is cell-based. To be noted: K. pneumoniae ATCC BAA-2146; for Fold reduction in Imipenem MIC in the presence of compounds (μg/mL) 4: compound at 4 μg/mL; for Fold reduction in Imipenem MIC in the presence of compounds (μg/mL) 8: compound at 8 μg/mL; for Fold reduction in Imipenem MIC in the presence of compounds (μg/mL) 16: compound at 16 μg/mL; for Fold reduction in Imipenem MIC in the presence of compounds (μg/mL) 32: compound at 32 μg/mL.

Where two headings read alike, the source gives them in different places.

NDM-1, sequence (C7C422 29-270, looked up): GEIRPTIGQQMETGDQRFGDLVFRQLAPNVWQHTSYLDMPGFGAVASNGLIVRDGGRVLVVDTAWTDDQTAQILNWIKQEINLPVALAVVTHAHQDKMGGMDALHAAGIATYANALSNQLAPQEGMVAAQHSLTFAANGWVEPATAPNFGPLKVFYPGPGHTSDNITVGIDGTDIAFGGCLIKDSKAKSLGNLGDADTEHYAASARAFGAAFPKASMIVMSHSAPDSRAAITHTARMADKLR

Broadly, the MIC is the smallest concentration in the dilution series that meets the test's criterion for growth inhibition. What is called IC50 is the concentration that gives 50% inhibition. Lower therefore signals greater potency in that assay. Turning to `O=C(O)c1[nH]c2c(c1-c1cncc(Cl)c1)CCc1ccccc1-2` [Example 54, 3-(5-chloropyridin-3-yl)-4,5-dihydro-1H-benzo[g]indole-2-carboxylic Acid], in experiment [1], the “Fold reduction in meropenem MIC in the presence of compounds (μg/mL) 4” value (“Fold reduction in meropenem MIC … (μg/mL) 4” below) worked out at 4 fold, the “Fold reduction in meropenem MIC in the presence of compounds (μg/mL) 8” value (“Fold reduction in meropenem MIC … (μg/mL) 8” for short) worked out at 4 fold, the “Fold reduction in meropenem MIC in the presence of compounds (μg/mL) 16” value (from here on “Fold reduction in meropenem MIC … (μg/mL) 16”) worked out at 8 fold and the “Fold reduction in meropenem MIC in the presence of compounds (μg/mL) 32” value (shortened to “Fold reduction in meropenem MIC … (μg/mL) 32”) came to 8 fold. The MIC in experiment [2] (Imipenem series) is greater than 128 µg/mL. Further, the MIC in experiment [2] (meropenem series) was greater than 128 µg/mL. In experiment [3], this compound yielded an IC50 of 0.075 µM. Also, the IC50 in experiment [4] came to 1.36 µM. Moreover, in experiment [5], the “Fold reduction in Imipenem MIC in the presence of compounds (μg/mL) 4” value (“Fold reduction in Imipenem MIC … (μg/mL) 4” below) came out at 4 fold, the “Fold reduction in Imipenem MIC in the presence of compounds (μg/mL) 8” value (“Fold reduction in Imipenem MIC … (μg/mL) 8” below) is on record as 4 fold, the “Fold reduction in Imipenem MIC in the presence of compounds (μg/mL) 16” value (“Fold reduction in Imipenem MIC … (μg/mL) 16” below) is listed as 8 fold and the “Fold reduction in Imipenem MIC in the presence of compounds (μg/mL) 32” value (“Fold reduction in Imipenem MIC … (μg/mL) 32” for short) was determined as 8 fold.

As to `Cc1cc(C)cc(-c2c(C(=O)O)[nH]c3c2CCc2ccccc2-3)c1` [Example 48, 3-(3,5-dimethylphenyl)-4,5-dihydro-1H-benzo[g]indole-2-carboxylic Acid], in experiment [1], the “Fold reduction in meropenem MIC … (μg/mL) 4” value is on record as 4 fold, the “Fold reduction in meropenem MIC … (μg/mL) 8” value is reported as 4 fold, the “Fold reduction in meropenem MIC … (μg/mL) 16” value was determined as 4 fold and the “Fold reduction in meropenem MIC … (μg/mL) 32” value is 8 fold. The MIC in experiment [2] (Imipenem series) was greater than 128 µg/mL. Moreover, the minimum inhibitory concentration (MIC) in experiment [2] (meropenem series) was greater than 128 µg/mL. Further, the IC50 in experiment [3] was 0.252 µM. Besides, the IC50 in experiment [4] turned out to be 0.695 µM. Also, in experiment [5], the “Fold reduction in Imipenem MIC … (μg/mL) 4” value is 4 fold, the “Fold reduction in Imipenem MIC … (μg/mL) 8” value is given as 4 fold, the “Fold reduction in Imipenem MIC … (μg/mL) 16” value was 8 fold and the “Fold reduction in Imipenem MIC … (μg/mL) 32” value is reported as 8 fold.

Take `COc1cc(OC)cc(-c2c(C(=O)O)[nH]c3c2CCc2ccccc2-3)c1` [Example 61, 3-(3,5-dimethoxyphenyl)-4,5-dihydro-1H-benzo[g]indole-2-carboxylic Acid]: in experiment [1], the “Fold reduction in meropenem MIC … (μg/mL) 4” value is 4 fold, the “Fold reduction in meropenem MIC … (μg/mL) 8” value came out at 4 fold, the “Fold reduction in meropenem MIC … (μg/mL) 16” value is on record as 8 fold and the “Fold reduction in meropenem MIC … (μg/mL) 32” value worked out at 8 fold. The MIC in experiment [2] (Imipenem series) is greater than 128 µg/mL. In addition, the minimum inhibitory concentration (MIC) in experiment [2] (meropenem series) was greater than 128 µg/mL. Further, in experiment [3], the half-inhibitory concentration (IC50) came out at 0.049 µM. Besides, inhibition in experiment [4] was half-maximal at 0.495 µM (IC50). Moreover, in experiment [5], the “Fold reduction in Imipenem MIC … (μg/mL) 4” value is recorded as 4 fold, the “Fold reduction in Imipenem MIC … (μg/mL) 8” value was 8 fold, the “Fold reduction in Imipenem MIC … (μg/mL) 16” value came out at 8 fold and the “Fold reduction in Imipenem MIC … (μg/mL) 32” value is 8 fold.

As for `O=C(O)c1[nH]c2c(c1-c1ccccc1Cl)CCc1ccccc1-2` [Example 44, 3-(2-chlorophenyl)-4,5-dihydro-1H-benzo[g]indole-2-carboxylic Acid], in experiment [1], the “Fold reduction in meropenem MIC … (μg/mL) 4” value is 4 fold, the “Fold reduction in meropenem MIC … (μg/mL) 8” value was 4 fold, the “Fold reduction in meropenem MIC … (μg/mL) 16” value is on record as 4 fold and the “Fold reduction in meropenem MIC … (μg/mL) 32” value is listed as 4 fold. In addition, the MIC in experiment [2] (Imipenem series) is greater than 128 µg/mL. In experiment [2] (meropenem series), the minimum inhibitory concentration (MIC) was greater than 128 µg/mL. In experiment [3], the midpoint of inhibition, the IC50, lay at 0.019 µM. Also, half-maximal inhibition in experiment [4] (IC50) required 1.1 µM. Moreover, in experiment [5], the “Fold reduction in Imipenem MIC … (μg/mL) 4” value worked out at 4 fold, the “Fold reduction in Imipenem MIC … (μg/mL) 8” value is recorded as 4 fold, the “Fold reduction in Imipenem MIC … (μg/mL) 16” value worked out at 4 fold and the “Fold reduction in Imipenem MIC … (μg/mL) 32” value is listed as 4 fold.

Regarding `O=C(O)c1[nH]c2c(c1-c1ccccc1F)CCc1ccccc1-2` [Example 41, 3-(2-Fluorophenyl)-4,5-dihydro-1H-benzo[g]indole-2-carboxylic Acid], in experiment [1], the “Fold reduction in meropenem MIC … (μg/mL) 4” value came to 4 fold, the “Fold reduction in meropenem MIC … (μg/mL) 8” value is listed as 4 fold, the “Fold reduction in meropenem MIC … (μg/mL) 16” value came out at 4 fold and the “Fold reduction in meropenem MIC … (μg/mL) 32” value was 8 fold. For the same compound, the MIC in experiment [2] (Imipenem series) was greater than 128 µg/mL. Also, in experiment [2] (meropenem series), the MIC was greater than 128 µg/mL. This compound also returned a 50% inhibitory concentration (IC50) in experiment [3] of 0.256 µM. For the same compound, the midpoint of inhibition in experiment [4], the IC50, lay at 1.34 µM. For the same compound, in experiment [5], the “Fold reduction in Imipenem MIC … (μg/mL) 4” value is reported as 4 fold, the “Fold reduction in Imipenem MIC … (μg/mL) 8” value was 4 fold, the “Fold reduction in Imipenem MIC … (μg/mL) 16” value stood at 8 fold and the “Fold reduction in Imipenem MIC … (μg/mL) 32” value came out at 8 fold.

For `O=C(O)c1[nH]c2c(c1-c1cccc(Cl)c1Cl)CCc1ccccc1-2` [Example 50, 3-(2,3-dichlorophenyl)-4,5-dihydro-1H-benzo[g]indole-2-carboxylic Acid], in experiment [1], the “Fold reduction in meropenem MIC … (μg/mL) 8” value amounted to 2 fold, the “Fold reduction in meropenem MIC … (μg/mL) 16” value came to 2 fold and the “Fold reduction in meropenem MIC … (μg/mL) 32” value was 4 fold. In addition, in experiment [2] (Imipenem series), the MIC is greater than 128 µg/mL. In addition, the MIC in experiment [2] (meropenem series) was greater than 128 µg/mL. The same compound registered an IC50 in experiment [3] of 0.211 µM. The compound also had an IC50 in experiment [4] of 25 µM. Further, in experiment [5], the “Fold reduction in Imipenem MIC … (μg/mL) 4” value was determined as 2 fold, the “Fold reduction in Imipenem MIC … (μg/mL) 8” value turned out to be 2 fold, the “Fold reduction in Imipenem MIC … (μg/mL) 16” value worked out at 4 fold and the “Fold reduction in Imipenem MIC … (μg/mL) 32” value is on record as 4 fold.

Turning to `COc1cc(Cl)cc(-c2c(C(=O)O)[nH]c3c2CCc2ccccc2-3)c1` [Example 59, 3-(3-chloro-5-methoxyphenyl)-4,5-dihydro-1H-benzo[g]indole-2-carboxylic Acid], in experiment [1], the “Fold reduction in meropenem MIC … (μg/mL) 4” value was 4 fold, the “Fold reduction in meropenem MIC … (μg/mL) 8” value stood at 8 fold, the “Fold reduction in meropenem MIC … (μg/mL) 16” value is reported as 8 fold and the “Fold reduction in meropenem MIC … (μg/mL) 32” value came to 16 fold. For the same compound, the MIC in experiment [2] (Imipenem series) is greater than 128 µg/mL. Further, in experiment [2] (meropenem series), the minimum inhibitory concentration (MIC) was greater than 128 µg/mL. This compound had an IC50 in experiment [3] of 0.015 µM. This compound also had an IC50 in experiment [4] of 0.552 µM. For the same compound, in experiment [5], the “Fold reduction in Imipenem MIC … (μg/mL) 4” value is reported as 4 fold, the “Fold reduction in Imipenem MIC … (μg/mL) 8” value was 4 fold, the “Fold reduction in Imipenem MIC … (μg/mL) 16” value came to 8 fold and the “Fold reduction in Imipenem MIC … (μg/mL) 32” value came to 16 fold.

For `O=C(O)c1[nH]c2c(c1-c1cncc(F)c1)CCc1ccccc1-2` [Example 53, 3-(5-fluoropyridin-3-yl)-4,5-dihydro-1H-benzo[g]indole-2-carboxylic Acid], in experiment [1], the “Fold reduction in meropenem MIC … (μg/mL) 8” value was determined as 2 fold, the “Fold reduction in meropenem MIC … (μg/mL) 16” value came out at 4 fold and the “Fold reduction in meropenem MIC … (μg/mL) 32” value is listed as 4 fold. Besides, the MIC in experiment [2] (Imipenem series) is greater than 128 µg/mL. For the same compound, the MIC in experiment [2] (meropenem series) is greater than 128 µg/mL. In addition, inhibition in experiment [3] was half-maximal at 0.334 µM (IC50). Also, the IC50 in experiment [4] stood at 3.74 µM. In addition, in experiment [5], the “Fold reduction in Imipenem MIC … (μg/mL) 4” value was 4 fold, the “Fold reduction in Imipenem MIC … (μg/mL) 8” value is recorded as 4 fold, the “Fold reduction in Imipenem MIC … (μg/mL) 16” value was 4 fold and the “Fold reduction in Imipenem MIC … (μg/mL) 32” value amounted to 8 fold.
